The results in this text go back to patent US20160238590A1, “COMPOSITIONS AND METHODS RELATED TO OAT SENSITIVITY” (IMMUSANT, INC., priority 2013, published 2016).

[ ]: non-standard residue; d: D form. pGlu = O=C1CC[C@@H](C(=O)O)N1

What all share (format): cell-based, human
One assay relates to Patient 2 TCC-01. The experiment in a line: IFN-γ ELISpot with T cell clone. In short, it runs like this:
(§1)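 Patient-derived T cell clones were isolated by CFSE-based proliferation to antigen followed by single-cell sorting, then expanded in IL-2 and IL-4. Specificity was tested by IFN-γ ELISpot using irradiated HLA-matched PBMC as antigen-presenting cells.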

The subject of the next assay is Patient 9 TCC-01. The assay is described as follows: IFN-γ ELISpot with T cell clone. The following applies: TCC Patient 9 TCC-01, peptide 50 μg/mL. In a few lines:
as §1

Another assay deals with Patient 9 TCC-02. The experiment in a line: IFN-γ ELISpot with T cell clone. The following applies: TCC Patient 9 TCC-02, peptide 50 μg/mL. In short, it runs like this: as §1
The test system of a further assay is Patient 10 TCC-01. The experiment in a line: IFN-γ ELISpot with T cell clone. The following applies: TCC Patient 10 TCC-01, peptide 50 μg/mL. In a few lines:
as §1

The next assay has as its system Patient 14 TCC-01. The experiment in a line: IFN-γ ELISpot with T cell clone. In short, it runs like this:
as §1

The test system of another assay is Patient 6 TCC-01. The assay is described as follows: IFN-γ ELISpot with T cell clone. In short, it runs like this: as §1
The next assay has as its system Patient 8 TCC-01. The assay is described as follows: IFN-γ ELISpot with T cell clone. The following applies: TCC Patient 8 TCC-01, peptide 25 μg/mL. In a few lines: as §1
A further assay has as its system Patient 2 TCC-03. The assay is described as follows: IFN-γ ELISpot with T cell clone. The following applies: TCC Patient 2 TCC-03, peptide 25 μg/mL. In short, it runs like this: as §1
The subject of a further assay is Patient 2 TCC-02. The assay is described as follows: IFN-γ ELISpot with T cell clone. The following applies: for IFN-γ ELISpot response (SFU) / significant SFU as a percentage of maximal peptide SFU: TCC Patient 2 TCC-02, peptide 25 μg/mL. In short, it runs like this:
as §1

Assay [1] relates to PBMC. The assay is described as follows: IFN-γ ELISpot on PBMC of CD patients on day 6 after 3-day oats challenge. The following applies: after 3-day oats challenge. In a few lines:
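PBMC from HLA-DQ2.5+/DQ8+ biopsy-proven coeliac patients on gluten-free diet ≥4 weeks, collected on day 6 after starting a 3-day oral challenge (oats 100 g/day, barley 150 g/day, or wheat/barley/rye muffins 22-25 g each daily). Responses to avenin, hordein and gluten peptide libraries, some deamidated or tTG-treated, measured by IFN-γ ELISpot.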

The subject of assay [2] is PBMC. The assay is described as follows: IFN-γ ELISpot on PBMC of CD patients after 3-day barley challenge. The following applies: after barley challenge. The text has this:
Australian Caucasian HLA-DQ2.5^+ and/or HLA-DQ8^+ CD subjects were recruited by advertisement in the Coeliac Society of Victoria newsletter and all had biopsy-proven CD conforming to ESPGHAN criteria. Patients had been on strict gluten free diet for at least 4 weeks prior to commencing grain challenge. Patients underwent 3-day grain challenge with oats, barley, or combined wheat, barley, and rye muffins, and 6 days after commencement, blood was collected. Day 0 responses were not observed in the selection of patients tested, as described previously^8.
Oats challenge consisted of 100 g dry weight daily of one of three commercial brands of oats: one not tested for wheat contamination (Uncle Toby's; Oats #1), and two shown by R5 ELISA to contain less than 20 ppm wheat gluten (Tilquhilie Pudding; Oats #2 and Freedom Food; Oats #3). Barley challenge consisted of pearl barley (Ward McKenzie) cooked into a risotto (150 g dry weight daily) and the wheat challenge consisted of four 50 g slices of wheat bread daily (Baker's Delight white loaf cut to toasting thickness). The combined wheat, barley, and rye challenge consisted of muffins baked with wheat flour (White Wings), barley flour (Four Leaf Milling), and rye flour (Four Leaf Milling; 22-25 g dry weight each daily). A symptom diary based on a […] Likert scale was completed by participants daily from baseline until day 6.
Two avenin peptide libraries were utilized for epitope screening. These were designed using avenin sequences from GenBank and a customized algorithm, as previously described^9. The initial library consisted of 199 screening-grade 20 mers including all possible 12 mers (Mimotopes). This library was screened with and without tTG pre-treatment. The second library consisted of additional avenin sequences that were synthesized with glutamate substitution at sites predicted to be deamidated by published algorithms^10, 11 removing the requirement for tTG treatment. This library contained 369 screening-grade 20 mers, including all possible 12 mers (Pepscan). The second round avenin library contained wild-type and deamidated versions of the most immunogenic sequences (25 high quality 16 mers from Mimotopes). High quality peptides containing previously described immunogenic sequences from wheat, barley, and rye were used to test for cross-reactivity^8 (Pepscan). High quality hordein and avenin peptides for TCC testing and biochemical studies were ordered from Pepscan, Mimotopes, or GL Biochem.
Peripheral blood mononuclear cells (PBMC) were isolated from heparinized whole blood using Ficoll-Paque™ Plus density-gradient centrifugation (GE Healthcare). IFN-γ ELISpot (Mabtech) was set up as previously described^8.

[3] abbreviates: TCC Patient 2 TCC-01, peptide 50 μg/mL.
The mark [4] stands for this setting: TCC Patient 14 TCC-01, peptide 50 μg/mL.
[5] abbreviates: TCC Patient 6 TCC-01, peptide 50 μg/mL.
Where [6] appears, read: TCC Patient 2 TCC-01, peptide 25 μg/mL.
The mark [7] stands for this setting: TCC Patient 6 TCC-01, peptide 25 μg/mL.

With LQPFPQPELPYPQPQ [reference compound], the “IFN-γ ELISpot response (raw SFU)” value in the assay on Patient 2 TCC-01 (setting [3]) is 0 SFU; in the assay on Patient 9 TCC-01 it was 287 SFU; in the assay on Patient 9 TCC-02, 240 SFU; with Patient 10 TCC-01, 39 SFU; in the assay with Patient 14 TCC-01 (setting [4]), 22 SFU; in the assay with Patient 6 TCC-01 (setting [5]), 2 SFU. In addition, the “significant SFU as a percentage of maximal peptide SFU” value (from here on “significant SFU as a percentage”) in the assay on Patient 9 TCC-01 and in the assay on Patient 9 TCC-02 was “*** (***: >70%)” in each case.

Turning to “QPFPQPEQPFPWQP ([pGlu]PFPQPEQPFPWQP-NH2; SMILES NC(=O)CC[C@H](NC(=O)[C@H](Cc1c[nH]c2ccccc12)NC(=O)[C@@H]1CCCN1C(=O)[C@H](Cc1ccccc1)NC(=O)[C@@H]1CCCN1C(=O)[C@H](CCC(N)=O)NC(=O)[C@H](CCC(=O)O)NC(=O)[C@@H]1CCCN1C(=O)[C@H](CCC(N)=O)NC(=O)[C@@H]1CCCN1C(=O)[C@H](Cc1ccccc1)NC(=O)[C@@H]1CCCN1C(=O)[C@@H]1CCC(=O)N1)C(=O)N1CCC[C@H]1C(N)=O) [wheat gliadin peptide containing DQ2.5-glia-ω1 and DQ2.5-glia-ω2, reference compound]”, the “IFN-γ ELISpot response (raw SFU)” value is reported as 2 SFU in the assay with Patient 2 TCC-01 (setting [3]); 1 SFU with Patient 9 TCC-01; 0 SFU in the assay on Patient 9 TCC-02; 205 SFU with Patient 10 TCC-01; 20 SFU with Patient 14 TCC-01 (setting [4]); 1 SFU with Patient 6 TCC-01 (setting [5]). The “significant SFU as a percentage” value in the assay with Patient 10 TCC-01 is recorded as “*** (***: >70%)”.

As to QYQPYPEQEEPFVQQQ, the “IFN-γ ELISpot response (SFU)” value in the assay on Patient 8 TCC-01 is 0 SFU; in the assay on Patient 2 TCC-03 it was 0 SFU; in the assay on Patient 2 TCC-02 it was 284 SFU; in the assay on Patient 2 TCC-01 (setting [6]) it was 2 SFU; in the assay with Patient 6 TCC-01 (setting [7]), 1 SFU. Also, the “rank of TCC response among homologous peptides” value in the assay on Patient 2 TCC-02 (Patient 2 TCC-02 (FIG. 2)) was “greatest response”. The “significant SFU as a percentage” value is on record as “*** (***: >70%)” with Patient 2 TCC-02; “** (**: 40-70%)” with PBMC [1] (patient P1, peptide 10 μg/ml); “* (*: 20-40%)” in the assay on PBMC [1] (patient P2, peptide 10 μg/ml); “* (*: 20-40%)” with PBMC [1] (patient P2, peptide 100 μg/ml); “* (*: 20-40%)” with PBMC [1] (patient P3, peptide 1 μg/ml); “** (**: 40-70%)” with PBMC [1] (patient P3, peptide 10 μg/ml). For the same sequence, the “IFN-γ ELISpot response (raw SFU)” value in the assay on PBMC [1] (patient P1, peptide 1 μg/ml) is given as 8 SFU; with PBMC [1] (patient P1, peptide 10 μg/ml), 15 SFU; with PBMC [1] (patient P1, peptide 100 μg/ml), 5 SFU; with PBMC [1] (patient P2, peptide 1 μg/ml), 7 SFU; in the assay on PBMC [1] (patient P2, peptide 10 μg/ml), 12 SFU; in the assay on PBMC [1] (patient P2, peptide 100 μg/ml), 20 SFU. Moreover, the “IFN-γ ELISpot response (raw SFU)” value with PBMC [1] (patient P3, peptide 1 μg/ml) is listed as 20 SFU; with PBMC [1] (patient P3, peptide 10 μg/ml) it was 31 SFU; in the assay with PBMC [1] (patient P3, peptide 100 μg/ml), 2 SFU; with PBMC [1] (patient P11, peptide 1 μg/ml), 2 SFU; in the assay with PBMC [1] (patient P11, peptide 10 μg/ml), 0 SFU; in the assay on PBMC [1] (patient P11, peptide 100 μg/ml), 0 SFU. The “IFN-γ ELISpot response (raw SFU)” value in the assay with PBMC [1] (patient P12, peptide 1 μg/ml) worked out at 4 SFU; in the assay on PBMC [1] (patient P12, peptide 10 μg/ml) it was 3 SFU; with PBMC [1] (patient P12, peptide 100 μg/ml) it was 2 SFU; in the assay with PBMC [1] (patient P13, peptide 50 μg/ml) it was 9 SFU.

As for SEQYQPYPEQEQPFV [DQ2.5-ave-1b], the “IFN-γ ELISpot response (SFU)” value in the assay on Patient 8 TCC-01 worked out at 50 SFU; in the assay with Patient 2 TCC-03, 1 SFU; in the assay with Patient 2 TCC-02, 102 SFU; with Patient 2 TCC-01 (setting [6]), 240 SFU; in the assay with Patient 6 TCC-01 (setting [7]), 30 SFU. For the same sequence, the “significant SFU as a percentage” value is given as “* (*: 20-40%)” in the assay on Patient 8 TCC-01, “* (*: 20-40%)” in the assay with Patient 2 TCC-02, “*** (***: >70%)” in the assay with Patient 2 TCC-01 (setting [6]) and “* (*: 20-40%)” with Patient 6 TCC-01 (setting [7]).

As for “SEQYQPYPEQEQPFVQ [deamidated avenin peptide containing DQ2.5-ave-1b]”, the “IFN-γ ELISpot response (raw SFU)” value with PBMC [2] (Patient 1, peptide 50 μg/ml) worked out at 77 SFU; in the assay with PBMC [2] (Patient 2, peptide 50 μg/ml), 225 SFU; in the assay on PBMC [2] (Patient 3, peptide 50 μg/ml), 36 SFU; in the assay on Patient 2 TCC-01 (TCC Patient 2 TCC-01 (Table 5), mean no antigen 1.1) it was 295 SFU; with Patient 14 TCC-01 (TCC Patient 14 TCC-01 (Table 5), mean no antigen 11.3, high background, SFU >25 considered as positive responses), 10 SFU; in the assay on Patient 6 TCC-01 (TCC Patient 6 TCC-01 (Table 5), mean no antigen 2), 12 SFU. For the same sequence, the “IFN-γ ELISpot response (raw SFU)” value with PBMC [1] (patient P1, peptide 1 μg/ml) was determined as 24 SFU; in the assay on PBMC [1] (patient P1, peptide 10 μg/ml) it was 18 SFU; in the assay with PBMC [1] (patient P1, peptide 100 μg/ml), 10 SFU; in the assay with PBMC [1] (patient P2, peptide 1 μg/ml), 5 SFU; in the assay on PBMC [1] (patient P2, peptide 10 μg/ml) it was 9 SFU; in the assay on PBMC [1] (patient P2, peptide 100 μg/ml) it was 24 SFU. The “IFN-γ ELISpot response (raw SFU)” value was determined as 4 SFU in the assay on PBMC [1] (patient P3, peptide 1 μg/ml); 7 SFU with PBMC [1] (patient P3, peptide 10 μg/ml); 2 SFU in the assay on PBMC [1] (patient P3, peptide 100 μg/ml); 0 SFU in the assay with PBMC [1] (patient P11, peptide 1 μg/ml); 3 SFU in the assay on PBMC [1] (patient P11, peptide 10 μg/ml); 0 SFU in the assay with PBMC [1] (patient P11, peptide 100 μg/ml). Moreover, the “IFN-γ ELISpot response (raw SFU)” value worked out at 2 SFU in the assay on PBMC [1] (patient P12, peptide 1 μg/ml); 4 SFU in the assay on PBMC [1] (patient P12, peptide 10 μg/ml); 2 SFU in the assay on PBMC [1] (patient P12, peptide 100 μg/ml); 13 SFU in the assay with PBMC [1] (patient P13, peptide 50 μg/ml). Moreover, the “significant SFU as a percentage” value is given as “* (*: 20-40%)” in the assay with PBMC [2] (Patient 1, peptide 50 μg/ml); “*** (***: >70%)” in the assay on PBMC [2] (Patient 2, peptide 50 μg/ml); “* (*: 20-40%)” with PBMC [2] (Patient 3, peptide 50 μg/ml); “*** (***: >70%)” in the assay with PBMC [1] (patient P1, peptide 1 μg/ml); “** (**: 40-70%)” in the assay on PBMC [1] (patient P1, peptide 10 μg/ml); “** (**: 40-70%)” with PBMC [1] (patient P2, peptide 100 μg/ml). Further, the “significant SFU as a percentage” value with PBMC [1] (patient P13, peptide 50 μg/ml) is “* (*: 20-40%)”.
